From US20250114356A1, “INDAZOLE BASED COMPOUNDS AND ASSOCIATED METHODS OF USE” (Arvinas Operations, Inc., priority 2020, published 2025)

Experiments:
G2019S LRRK2 = molecular target: T1, G2019S LRRK2 (Homo sapiens, UniProt Q5S007, G2019S); test: LRRK2 degradation assay, G2019S LRRK2-HiBit expressed from plasmid in HEK293 cells; type: cell-based; conditions: HEK293 cells transfected with HiBit-tagged G2019S LRRK2, 24 hours compound incubation
T1 construct: expressed in transfected cells; host or cells: HEK293 (ATCC CRL-1573), transient transfection, ubiquitin promoter
Procedure: (§1) The assay measures the degradation of wildtype and G2019S LRRK2 tagged with a HiBit tag on the C-terminus of the protein that was expressed from a mammalian expression vector, driven by the ubiquitin promoter in HEK293 cells. Each compound dose-response was repeated on two separate days, on three separate plates each day.
(§2) Plasmid Preparation. Transfection mixes were assembled as follows and incubated for 30 minutes at room temperature. In a 15 mL tube, 5.25 mL Opti-MEM (no additions) was mixed with 17 μL Firefly Luciferase plasmid at 1 μg/μL and 158 μL WT plasmid DNA at 1 μg/μL (175 μg total DNA) were mixed by flicking. In a new 15 mL tube, 5.25 mL OptiMEM was mixed with 17 μL Firefly Luciferase plasmid at 1 μg/μL and 158 μL G2019S plasmid DNA at 1 μg/μL (175 μg total DNA) were mixed by flicking. X-tremeGene HP was mixed thoroughly using a vortex. Next, 175 μL was added to each tube and flicked to mix. Both tubes were left to incubate for 30 minutes at room temperature.
(§3) While the transfection mixes were incubating, HEK293 cells (acquired from ATCC; ATCC CRL-1573) were harvested with trypsin. Once cells are detached, the cells were resuspended in 12 mL OptiMEM+5% FBS and transferred to a 50 mL tube. The cells were mixed well and counted. Using OptiMEM+5% FBS, the cells were diluted in two 250 mL conical tubes at 0.71×10^6 cells/mL in 70 mL. One tube was labeled “WT” and the other “G2019S”. The WT and G2019S transfection mixes were added dropwise to the corresponding 250 mL tubes. The tubes were mixed first by pipetting then by swirling. The tubes were incubated at room temperature for at least 5 minutes.
(§4) Each tube was swirled before dispensing and after every three plates. Seventy microliters of cells were dispensed with WT or G2019S DNA to seven plates each. Three plates of each were tested with compound plate one (preparation described below) and three plates of each were tested with compound plate two (preparation described below). The first plate from each set served as a “prime” plate and was not used to test compounds. Each plate was incubated in the hood for 10 minutes before placing in the 37° C. incubator for 24 hours.
(§5) Preparation of Compound and Assay Plates. Two compound plates were made using 96 well polypropylene plates. Compounds were made up at 10 mM and were diluted to 1 mM in 30 μL. Each dose response curve included a well of DMSO, as a negative control and for normalization, and a well of 0.5 μM of Exemplary Compound 4 as a positive control. In addition to seven test compounds, each plate also included a dose response of Exemplary Compound 4. The compound plates were spun down along at 1200 rpm for 2 minutes.
(§6) The two compound plates were then mixed and 2 μL was diluted in intermediate plates having 248 μL of Opti-Mem in each well. Next, 10 μL diluted compounds from the intermediate plates were added to each test plate (three WT and three G2019S plates per compound plate for a total of 12 assay plates). The plates were incubated for 24 hours at 37° C.
(§7) All assay plates and all Nano-Glo Dual-Luciferase Reporter Assay System components (except for the DLR substrate) were equilibrated to room temperature. Next, the luciferase buffer was mixed with the lyophilized amber bottle until fully dissolved, and 75 μL of the luciferase mixture was added to each well of each assay plate. The assay plates were incubated for 10 minutes at room temperature with shaking for at least 5 minutes, and then read on a plate reader.
(§8) Developing Plates and Analyzing Data. One milliliter of DLR substrate and 1 mL LgBiT Protein were added to the Stop and Glo buffer, and 75 μL of the mixture was added to each well of each plate. Optically clear seals were added to each plate and each plate was incubated for 20 minutes with shaking for at least 10 minutes, and then read on a plate reader. […]

wildtype LRRK2 = molecular target: T2, wildtype LRRK2 (Homo sapiens, UniProt Q5S007); test: LRRK2 degradation assay, wildtype LRRK2-HiBit expressed from plasmid in HEK293 cells; type: cell-based; conditions: HEK293 cells transfected with HiBit-tagged wildtype LRRK2, 24 hours compound incubation; for Dmax: read-out: **WT Dmax (%); for DC50: read-out: *WT DC50
T2 construct: expressed in transfected cells; host or cells: HEK293 (ATCC CRL-1573), transient transfection, ubiquitin promoter
Procedure: as §1, §2, §3, §4, §5, §6, §7, §8

T2 sequence (Q5S007 whole entry): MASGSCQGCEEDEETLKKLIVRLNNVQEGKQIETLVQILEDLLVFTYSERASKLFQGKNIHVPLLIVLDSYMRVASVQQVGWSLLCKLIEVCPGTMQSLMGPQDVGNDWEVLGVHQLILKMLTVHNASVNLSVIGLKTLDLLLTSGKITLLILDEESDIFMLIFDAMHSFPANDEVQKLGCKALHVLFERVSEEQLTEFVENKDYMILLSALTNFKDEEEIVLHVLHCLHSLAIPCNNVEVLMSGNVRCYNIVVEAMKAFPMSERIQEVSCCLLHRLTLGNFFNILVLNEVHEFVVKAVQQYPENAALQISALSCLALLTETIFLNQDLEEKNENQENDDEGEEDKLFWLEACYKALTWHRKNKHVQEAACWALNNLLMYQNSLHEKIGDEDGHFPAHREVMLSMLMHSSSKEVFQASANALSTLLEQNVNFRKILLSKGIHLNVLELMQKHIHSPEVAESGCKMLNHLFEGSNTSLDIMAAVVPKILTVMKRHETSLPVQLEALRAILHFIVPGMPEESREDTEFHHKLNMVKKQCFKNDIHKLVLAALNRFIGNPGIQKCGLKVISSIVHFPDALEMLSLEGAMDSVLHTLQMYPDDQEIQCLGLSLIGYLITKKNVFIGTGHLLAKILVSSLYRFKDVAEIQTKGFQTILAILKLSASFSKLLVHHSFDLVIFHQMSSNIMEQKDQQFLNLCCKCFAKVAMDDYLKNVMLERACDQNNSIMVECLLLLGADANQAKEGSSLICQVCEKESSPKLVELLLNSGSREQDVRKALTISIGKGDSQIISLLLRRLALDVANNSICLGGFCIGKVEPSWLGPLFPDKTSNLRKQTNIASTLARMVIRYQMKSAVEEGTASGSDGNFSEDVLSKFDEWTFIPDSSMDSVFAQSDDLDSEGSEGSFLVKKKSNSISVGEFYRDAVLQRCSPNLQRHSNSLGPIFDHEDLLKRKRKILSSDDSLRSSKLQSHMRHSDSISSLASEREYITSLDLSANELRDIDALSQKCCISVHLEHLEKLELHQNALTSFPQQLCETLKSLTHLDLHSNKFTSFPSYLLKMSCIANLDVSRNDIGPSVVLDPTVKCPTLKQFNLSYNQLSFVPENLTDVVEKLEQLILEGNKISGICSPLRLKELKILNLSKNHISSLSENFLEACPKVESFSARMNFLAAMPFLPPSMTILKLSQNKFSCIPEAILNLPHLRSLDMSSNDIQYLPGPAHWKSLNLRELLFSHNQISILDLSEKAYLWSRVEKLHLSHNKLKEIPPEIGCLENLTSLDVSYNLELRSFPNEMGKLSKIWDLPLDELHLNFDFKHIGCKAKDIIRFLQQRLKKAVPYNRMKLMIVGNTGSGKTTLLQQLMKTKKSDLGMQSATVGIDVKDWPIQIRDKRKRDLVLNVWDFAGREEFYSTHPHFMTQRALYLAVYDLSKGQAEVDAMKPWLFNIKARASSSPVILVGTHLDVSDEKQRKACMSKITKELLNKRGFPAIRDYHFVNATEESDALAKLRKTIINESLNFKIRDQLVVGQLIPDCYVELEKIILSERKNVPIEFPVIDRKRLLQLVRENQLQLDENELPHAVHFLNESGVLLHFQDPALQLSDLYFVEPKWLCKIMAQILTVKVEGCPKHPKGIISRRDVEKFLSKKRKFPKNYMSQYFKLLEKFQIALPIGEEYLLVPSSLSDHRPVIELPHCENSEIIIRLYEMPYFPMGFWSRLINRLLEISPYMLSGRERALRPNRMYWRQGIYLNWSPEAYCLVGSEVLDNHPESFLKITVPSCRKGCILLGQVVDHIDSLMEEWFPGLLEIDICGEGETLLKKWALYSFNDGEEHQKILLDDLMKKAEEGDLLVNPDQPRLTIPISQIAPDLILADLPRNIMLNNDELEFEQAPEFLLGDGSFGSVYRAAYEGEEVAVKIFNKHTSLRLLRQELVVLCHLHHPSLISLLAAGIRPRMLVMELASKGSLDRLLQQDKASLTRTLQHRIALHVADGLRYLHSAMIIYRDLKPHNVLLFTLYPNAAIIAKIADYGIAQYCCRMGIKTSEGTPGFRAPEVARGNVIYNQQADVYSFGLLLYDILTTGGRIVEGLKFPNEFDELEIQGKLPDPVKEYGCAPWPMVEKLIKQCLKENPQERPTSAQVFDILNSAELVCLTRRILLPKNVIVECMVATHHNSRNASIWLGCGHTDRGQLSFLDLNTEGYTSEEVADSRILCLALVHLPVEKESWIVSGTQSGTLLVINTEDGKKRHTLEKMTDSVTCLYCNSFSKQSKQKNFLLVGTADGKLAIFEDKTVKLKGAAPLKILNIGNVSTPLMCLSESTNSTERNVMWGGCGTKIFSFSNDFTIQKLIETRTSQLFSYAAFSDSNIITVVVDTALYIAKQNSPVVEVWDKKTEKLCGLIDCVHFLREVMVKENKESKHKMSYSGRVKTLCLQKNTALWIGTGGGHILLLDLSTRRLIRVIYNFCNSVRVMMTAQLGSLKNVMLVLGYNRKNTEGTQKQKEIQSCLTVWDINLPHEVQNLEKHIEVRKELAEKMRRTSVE
T1 sequence (Q5S007 whole entry G2019S): as the sequence (Q5S007 whole entry) above, with G2019S counted along it

SMILES	DC50 (G2019S LRRK2) [nM]	Dmax (G2019S LRRK2) [%]	Dmax (wildtype LRRK2) [%]	DC50 (wildtype LRRK2) [nM]
CC1(Oc2ccc3[nH]nc(-c4cc(N5CCO[C@H](CCOCCOCCOCCOc6ccc7c(c6)C(=O)N(C6CCC(=O)NC6=O)C7=O)C5)ncn4)c3c2)CC1 (stereo in doubt) [compound 17, 2-(2,6-dioxopiperidin-3-yl)-5-(2-(2-(2-(2-(4-(6-(5-(1-methylcyclopropoxy)-1H-indazol-3-yl)pyrimidin-4-yl)morpholin-2-yl)ethoxy)ethoxy)ethoxy)ethoxy)isoindoline-1,3-dione]	50 to 100	≥ 70	≥ 70	10 to 50
C[C@H]1CN(c2cc(-c3n[nH]c4ccc(OC5(C)CC5)cc34)ncn2)CCN1CCOCCOCCOCCOCCOc1ccc2c(c1)C(=O)N(C1CCC(=O)NC1=O)C2=O (stereo partly drawn) [compound 5, 2-(2,6-dioxopiperidin-3-yl)-5-({14-[(2S)-2-methyl-4-{6-[5-(1-methylcyclopropoxy)-1H-indazol-3-yl]pyrimidin-4-yl}piperazin-1-yl]-3,6,9,12-tetraoxatetradecan-1-yl}oxy)-2,3-dihydro-1H-isoindole-1,3-dione]	10 to 50	≥ 70	≥ 70	10 to 50
CC(C)Oc1ccc2[nH]nc(-c3cc(N4CCN(CCOCCOCCOc5ccc6c(c5)C(=O)N(C5CCC(=O)NC5=O)C6=O)[C@@H](C)C4)ncn3)c2c1 (stereo partly drawn) [compound 8, 2-(2,6-dioxopiperidin-3-yl)-5-[2-(2-{2-[(2S)-2-methyl-4-{6-[5-(propan-2-yloxy)-1H-indazol-3-yl]pyrimidin-4-yl}piperazin-1-yl]ethoxy}ethoxy)ethoxy]-2,3-dihydro-1H-isoindole-1,3-dione]	≥ 100	< 50	< 50	≥ 100
CC(C)Oc1ccc2[nH]nc(-c3cc(N4CCN(CCOCCOCCOCCOc5ccc6c(c5)C(=O)N(C5CCC(=O)NC5=O)C6=O)[C@@H](C)C4)ncn3)c2c1 (stereo partly drawn) [compound 9, 2-(2,6-dioxopiperidin-3-yl)-5-{2-[2-(2-{2-[(2S)-2-methyl-4-{6-[5-(propan-2-yloxy)-1H-indazol-3-yl]pyrimidin-4-yl}piperazin-1-yl]ethoxy}ethoxy)ethoxy]ethoxy}-2,3-dihydro-1H-isoindole-1,3-dione]	≥ 100	< 50	< 50	≥ 100
CC(C)Oc1ccc2[nH]nc(-c3cc(N4C[C@@H](C)N(CCOCCOCCOCCOc5ccc6c(c5)C(=O)N(C5CCC(=O)NC5=O)C6=O)[C@@H](C)C4)ncn3)c2c1 (stereo partly drawn) [compound 10, 5-{2-[2-(2-{2-[(2R,6S)-2,6-dimethyl-4-{6-[5-(propan-2-yloxy)-1H-indazol-3-yl]pyrimidin-4-yl}piperazin-1-yl]ethoxy}ethoxy)ethoxy]ethoxy}-2-(2,6-dioxopiperidin-3-yl)-2,3-dihydro-1H-isoindole-1,3-dione]	10 to 50	50 to 70	50 to 70	10 to 50
CC(C)Oc1ccc2[nH]nc(-c3ccnc(N4CCN(CCOCCOCCOCCOc5ccc6c(c5)C(=O)N(C5CCC(=O)NC5=O)C6=O)[C@@H](C)C4)c3)c2c1 (stereo partly drawn) [compound 11, 2-(2,6-dioxopiperidin-3-yl)-5-{2-[2-(2-{2-[(2S)-2-methyl-4-{4-[5-(propan-2-yloxy)-1H-indazol-3-yl]pyridin-2-yl}piperazin-1-yl]ethoxy}ethoxy)ethoxy]ethoxy}-2,3-dihydro-1H-isoindole-1,3-dione]	10 to 50	50 to 70	50 to 70	≥ 100
CC(C)Oc1ccc2[nH]nc(-c3cc(N4CCN(CCN5CC(CCN6CCN(c7ccc8c(c7)C(=O)N(C7CCC(=O)NC7=O)C8=O)CC6)C5)CC4)ncn3)c2c1 (centres unmarked) [compound 46, 2-(2,6-dioxopiperidin-3-yl)-5-(4-(2-(1-(2-(4-(6-(5-isopropoxy-1H-indazol-3-yl)pyrimidin-4-yl)piperazin-1-yl)ethyl)azetidin-3-yl)ethyl)piperazin-1-yl)isoindoline-1,3-dione]	–	–	50 to 70	< 10

Next, values leading:

DC50 (G2019S LRRK2) [nM]	Dmax (G2019S LRRK2) [%]	Dmax (wildtype LRRK2) [%]	DC50 (wildtype LRRK2) [nM]	SMILES
< 10	< 50	< 50	< 10	C[C@H]1CN(c2cc(-c3[nH]nc4ccc(OC5(C)CC5)cc34)ncn2)CCN1CCOc1ccc2c(c1)C(=O)N(C1CCC(=O)NC1=O)C2=O (stereo partly drawn) [compound 1, 2-(2,6-dioxopiperidin-3-yl)-5-{2-[(2S)-2-methyl-4-{6-[5-(1-methylcyclopropoxy)-1H-indazol-3-yl]pyrimidin-4-yl}piperazin-1-yl]ethoxy}-2,3-dihydro-1H-isoindole-1,3-dione]
< 10	< 50	50 to 70	< 10	C[C@H]1CN(c2cc(-c3n[nH]c4ccc(OC5(C)CC5)cc34)ncn2)CCN1CCOCCOc1ccc2c(c1)C(=O)N(C1CCC(=O)NC1=O)C2=O (stereo partly drawn) [compound 2, 2-(2,6-dioxopiperidin-3-yl)-5-(2-{2-[(2S)-2-methyl-4-{6-[5-(1-methylcyclopropoxy)-1H-indazol-3-yl]pyrimidin-4-yl}piperazin-1-yl]ethoxy}ethoxy)-2,3-dihydro-1H-isoindole-1,3-dione]
10 to 50	50 to 70	≥ 70	< 10	C[C@H]1CN(c2cc(-c3n[nH]c4ccc(OC5(C)CC5)cc34)ncn2)CCN1CCOCCOCCOc1ccc2c(c1)C(=O)N(C1CCC(=O)NC1=O)C2=O (stereo partly drawn) [compound 3, 2-(2,6-dioxopiperidin-3-yl)-5-[2-(2-{2-[(2S)-2-methyl-4-{6-[5-(1-methylcyclopropoxy)-1H-indazol-3-yl]pyrimidin-4-yl}piperazin-1-yl]ethoxy}ethoxy)ethoxy]-2,3-dihydro-1H-isoindole-1,3-dione]
< 10	50 to 70	50 to 70	< 10	C[C@@H]1CN(c2cc(-c3n[nH]c4ccc(OC5(C)CC5)cc34)ncn2)C[C@H](C)N1CCOCCOCCOc1ccc2c(c1)C(=O)N(C1CCC(=O)NC1=O)C2=O (stereo partly drawn) [compound 6, 5-[2-(2-{2-[(2R,6S)-2,6-dimethyl-4-{6-[5-(1-methylcyclopropoxy)-1H-indazol-3-yl]pyrimidin-4-yl}piperazin-1-yl]ethoxy}ethoxy)ethoxy]-2-(2,6-dioxopiperidin-3-yl)-2,3-dihydro-1H-isoindole-1,3-dione]
< 10	50 to 70	≥ 70	< 10	C[C@@H]1CN(c2cc(-c3n[nH]c4ccc(OC5(C)CC5)cc34)ncn2)C[C@H](C)N1CCOCCOCCOCCOc1ccc2c(c1)C(=O)N(C1CCC(=O)NC1=O)C2=O (stereo partly drawn) [compound 7, 5-{2-[2-(2-{2-[(2R,6S)-2,6-dimethyl-4-{6-[5-(1-methylcyclopropoxy)-1H-indazol-3-yl]pyrimidin-4-yl}piperazin-1-yl]ethoxy}ethoxy)ethoxy]ethoxy}-2-(2,6-dioxopiperidin-3-yl)-2,3-dihydro-1H-isoindole-1,3-dione]
< 10	≥ 70	≥ 70	< 10	C[C@H]1CN(c2cc(-c3n[nH]c4ccc(OC5(C)CC5)cc34)ccn2)CCN1CCOCCOCCOCCOc1ccc2c(c1)C(=O)N(C1CCC(=O)NC1=O)C2=O (stereo partly drawn) [compound 12, 2-(2,6-dioxopiperidin-3-yl)-5-{2-[2-(2-{2-[(2S)-2-methyl-4-{4-[5-(1-methylcyclopropoxy)-1H-indazol-3-yl]pyridin-2-yl}piperazin-1-yl]ethoxy}ethoxy)ethoxy]ethoxy}-2,3-dihydro-1H-isoindole-1,3-dione]
